Experiments:
[1] = test system: SEB-exhausted human PBMCs; test: cells; format: cell-based
SEB-restimulated PBMCs = test: IFNγ production in SEB-restimulated PBMCs (Example 1); format: cell-based, human; details: FIG. 5 (Inhibitor 3 at 10 μM)
From the text: The effect of USP9X inhibition on PBMCs that have been re-stimulated with SEB was also investigated. […] This is consistent with the notion that the SEB-restimulated T cells were in a state of exhaustion or rendered tolerant to SEB.

[2] = test system: CD3/CD28 Activated T Cells; test: anti-CD3/CD28 T cell activation assay (Example 2); format: cell-based; details: FIG. 6
Method: (§1) Given the reported role of ITCH and Cbl-b in T cell tolerance and as a negative regulator of T-cell receptor (TCR)/[…] 28 (CD28) signaling, the effects of USP9X inhibition were evaluated in a CD3/CD28 activation assay and in a mixed lymphocyte reaction (MLR) assay.

[3] = test system: mixed lymphocyte reaction; test: mixed lymphocyte reaction (MLR) assay (Example 2); format: cell-based; details: FIG. 7
Method: as §1

A375 melanoma cells = test: Allogeneic PBMC-mediated cytotoxicity of A375 melanoma cells, caspase 3/7 (Example 4); format: cell-based, human; details: with SEB-stimulated PBMCs, FIG. 9A/9B
Method: A375 cells incubated alone, in the absence of SEB-stimulated PMBCs, with either compound had no significant effect on cellular apoptosis.

[4] = test system: Human total T cells (CD3+); test: Human T cell activation with CD3/CD28 activator, IFNγ ELISA (Example 6); format: cell-based; details: 4 days, two donors, FIGS. 11-12
Method: Human total T cells (CD3+) were isolated using EasySep™ immunomagnetic beads (Stemcell Technologies) from healthy human PBMCs (Hemacare). Cells were stained with Cell Trace Violet proliferation dye (Invitrogen), and treated with agent or DMSO. Cells were also stimulated with a CD3/CD28 activator (Stemcell Technologies). After 4 days of incubation, cells and supernatant were collected; cells were washed with staining buffer (PBS with 2% FBS) twice and centrifuged (350 g for 5 min). Cells were stained with LIVE/DEAD stain (Invitrogen), FITC-CD4 (BD Pharmingen) and CD8 (BD Pharmingen) in 100 μL volume for 30 mins at 4° C. Cells were washed twice as described above, resuspended in 100 μL staining buffer and analyzed using a BD Canto II (BD Biosciences). Data was analyzed using FlowJo V10 (FlowJo LLC). Secreted IFNγ was measured by ELISA (Dakewe Biotech Co., Ltd). All data were analyzed by Graphpad Prism 6.0 (GraphPad Software).

female BALB/c mice = test: SEB-induced peripheral tolerance in mice, spleen and splenocyte readouts (Example 7); format: in vivo
Method: Peripheral tolerance/inactivation was induced in female BALB/c mice by a single intraperitoneal injection of 30 μg SEB. Mice were treated with a positive control (anti-CTLA4) or various doses of USP9X Inhibitor 3. Spleens and splenocytes were harvested at 24 hr after the last dose. […] No changes in IL-2 and IFNγ levels were detected in the supernatants from SEB-restimulated splenocytes.

[5] = highest dose group, 24 hr after last dose

Structure (SMILES) | IFNγ production compared to DMSO or negative control compound 5 [1] | EC50 ([1]; Homo sapiens, PBMC, 48 h, read-out: EC50 value for IFNγ secretion) | IFNγ production following SEB-restimulation (SEB-restimulated PBMCs) | IFNγ production [2] | IFNγ secretion in the MLR assay [3] | EC50 ([3]; Lymphocyte, read-out: EC50 for IFNγ secretion in the MLR assay) | A375 apoptosis (caspase 3/7 activity) (A375 melanoma cells) | IFNγ production [4] | Spleen protein level of Cbl-b, reduction (female BALB/c mice; [5]) | Spleen protein level of ITCH, reduction (female BALB/c mice; [5]) | Spleen protein levels of Cbl-b and ITCH (female BALB/c mice; lower doses) | IL-2 and IFNγ levels in supernatants from SEB-restimulated splenocytes (female BALB/c mice; splenocytes harvested 24 hr after last dose)
CNC[C@H](C(=O)N1CC2=C(C1)CN(S(=O)(=O)c1ccc3c(c1)OCCO3)C2)c1cccc(Cl)c1 [USP9X Inhibitor 3, (2R)-2-(3-chlorophenyl)-1-[5-(2,3-dihydro-1,4-Benzodioxine-6-sulfonyl)-1H,2H,3H,4H,5H,6H-pyrrolo[3,4-c]pyrrol-2-yl]-3-(methylamino)propan-1-one] | significantly increase IFNγ production | 100 to 1000 nM | restored IFNγ production to varying degrees depending on the donor | the most profound effect | promoted IFNγ secretion | 100 to 1000 nM | enhanced A375 apoptosis in a concentration-dependent manner | increased | 81% | 64% | no notable changes | No changes
O=S(=O)(c1ccc(-c2ncco2)cc1)N1Cc2cnc(C(O)c3cccc(N4CCNCC4)c3)cc2C1 (stereo not shown) [USP9X Inhibitor 4, [2-[4-(1,3-oxazol-2-yl)benzenesulfonyl]-1H,2H,3H-pyrrolo[3,4-c]pyridin-6-yl][3-(piperazin-1-yl)phenyl] methanol] |  |  |  |  |  |  |  | increased |  |  |  | 

Reference: patent US20210346356A1, “INHIBITING UBIQUITIN SPECIFIC PEPTIDASE 9X” (FORMA THERAPEUTICS, INC., priority 2018, published 2021)
